Patent publication US20240018133A1, “MODULATORS OF THE INTEGRATED STRESS PATHWAY” (Calico Life Sciences LLC, priority 2019, published 2024)

test system: ATF4 luciferase reporter (human full-length ATF4 5'-UTR fused to firefly luciferase) in HEK293T cells; experiment: ATF4-Luc assay (in vitro model of VWMD): HEK293T cells carrying ATF4 luciferase reporter, tunicamycin-treated; assay type: cell-based; conditions: Homo sapiens, HEK-293T, 1 μg/mL tunicamycin, 7 hours, One Glo luminescence
Procedure, shortened: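 Compound at 200 nM and tunicamycin at 1 μg/mL were given together for 7 h to HEK293T cells stably transduced with an ATF4 5′-UTR-driven firefly luciferase reporter. Read-out by luminescence, reported as EC50.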

Structure (SMILES) | EC50
O=C(COc1ccc(Cl)c(F)c1)NC12CC(NC(=O)[C@H]3C[C@@H](NCCO)c4cc(Cl)ccc4O3)(C1)C2 [Compound 308, (2R,4R)-6-chloro-N-{3-[2-(4-chloro-3-fluorophenoxy)acetamido]bicyclo[1.1.1]pentan-1-yl}-4-[(2-hydroxyethyl)amino]-3,4-dihydro-2H-1-benzopyran-2-carboxamide] | 10 to 50 nM
O=C(COc1ccc(Cl)c(F)c1)NC12CC(NC(=O)[C@H]3C[C@@H](O)c4cc(Cl)c(F)cc4O3)(C1)C2 [Compound 264, (2R,4R)-6-chloro-N-{3-[2-(4-chloro-3-fluorophenoxy)acetamido]bicyclo[1.1.1]pentan-1-yl}-7-fluoro-4-hydroxy-3,4-dihydro-2H-1-benzopyran-2-carboxamide] | < 10 nM
Cc1cc2oc(C(=O)NC34CC(NC(=O)COc5ccc(Cl)c(F)c5)(C3)C4)cc(=O)c2cc1Cl [Compound 236, 6-chloro-N-{3-[2-(4-chloro-3-fluorophenoxy)acetamido]bicyclo[1.1.1]pentan-1-yl}-7-methyl-4-oxo-4H-1-benzopyran-2-carboxamide] | < 10 nM
CCc1ncc(C(=O)NC23CC(NC(=O)[C@H]4C[C@@H](O)c5cc(Cl)ccc5O4)(C2)C3)o1 [Compound 384, N-(3-{[(2R,4R)-6-chloro-4-hydroxy-3,4-dihydro-2H-1-benzopyran-2-carbonyl]amino}bicyclo[1.1.1]pentan-1-yl)-2-ethyl-1,3-oxazole-5-carboxamide] | 50 to 250 nM
Cc1cc2c(cc1F)C(O)CC(C(=O)NC13CC(NC(=O)COc4ccc(Cl)c(F)c4)(C1)C3)O2 (stereo not shown) [Compound 347, N-{3-[2-(4-chloro-3-fluorophenoxy)acetamido]bicyclo[1.1.1]pentan-1-yl}-6-fluoro-4-hydroxy-7-methyl-3,4-dihydro-2H-1-benzopyran-2-carboxamide] | < 10 nM
C[C@]1(C(=O)NC23CC(NC(=O)COc4ccc(Cl)c(F)c4)(C2)C3)Oc2ccc(Cl)cc2C1O (stereo partly drawn) [Compound 262, (2S)-5-chloro-N-{3-[2-(4-chloro-3-fluorophenoxy)acetamido]bicyclo[1.1.1]pentan-1-yl}-3-hydroxy-2-methyl-2,3-dihydro-1-benzofuran-2-carboxamide] | > 2000 nM
O=C(COc1ccc(Cl)c(F)c1)NC12CC(NC(=O)C3CC(N[C@H]4C[C@@H](O)C4)c4cc(Cl)ccc4O3)(C1)C2 (mixture of isomers) [Compound 209, 6-chloro-N-{3-[2-(4-chloro-3-fluorophenoxy)acetamido]bicyclo[1.1.1]pentan-1-yl}-4-{[(1s,3s)-3-hydroxycyclobutyl]amino}-3,4-dihydro-2H-1-benzopyran-2-carboxamide] | 50 to 250 nM
O=C(COc1ccc(Cl)c(F)c1)NC12CC(NC(=O)[C@H]3C[C@@H](O)c4cc(F)c(Cl)cc4O3)(C1)C2 (single isomer, unassigned) [Compound 206] | < 10 nM
CS(=O)(=O)NC1CC(C(=O)NC23CC(NC(=O)COc4ccc(Cl)c(F)c4)(C2)C3)Oc2ccc(Cl)cc21 (stereo not shown) [Compound 219, 6-chloro-N-{3-[2-(4-chloro-3-fluorophenoxy)acetamido]bicyclo[1.1.1]pentan-1-yl}-4-[(methanesulfonyl)amino]-3,4-dihydro-2H-1-benzopyran-2-carboxamide] | < 10 nM
C[C@]1(O)C[C@@H](C(=O)NC23CC(NC(=O)COc4ccc(Cl)c(F)c4)(C2)C3)Oc2ccc(Cl)cc21 (single isomer, unassigned) [Compound 237] | < 10 nM
O=C(NC12CCC(NC(=O)C3CC(=O)c4cc(Cl)ccc4O3)(CC1)[C@@H](O)C2)c1cc(C(F)F)no1 (stereo partly drawn) [Compound 214, N-{(3S)-4-[(6-chloro-4-oxo-3,4-dihydro-2H-1-benzopyran-2-carbonyl)amino]-3-hydroxybicyclo[2.2.2]octan-1-yl}-3-(difluoromethyl)-1,2-oxazole-5-carboxamide] | 250 to 500 nM
Cc1csc(C(=O)NC23CCC(NC(=O)[C@H]4C[C@@H](O)c5cc(Cl)ccc5O4)(CC2)C[C@@H]3O)n1 [Compound 356, N-[(2S)-4-{[(2R,4R)-6-chloro-4-hydroxy-3,4-dihydro-2H-1-benzopyran-2-carbonyl]amino}-2-hydroxybicyclo[2.2.2]octan-1-yl]-4-methyl-1,3-thiazole-2-carboxamide] | 50 to 250 nM
O=C(COc1ccc(Cl)c(F)c1)NC12CCC(NC(=O)[C@H]3C[C@@H](O)c4cc(Cl)ccc4O3)(CC1)[C@@H](O)C2 (single isomer, unassigned) [Compound 238] | < 10 nM
O=C(COc1ccc(Cl)c(F)c1)NC12CC(NC(=O)[C@@H]3C[C@H](NCCO)c4cc(Cl)ccc4O3)(C1)C2 [Compound 309, (2S,4S)-6-chloro-N-{3-[2-(4-chloro-3-fluorophenoxy)acetamido]bicyclo[1.1.1]pentan-1-yl}-4-[(2-hydroxyethyl)amino]-3,4-dihydro-2H-1-benzopyran-2-carboxamide] | < 10 nM
C[C@]1(C(=O)NC23CC(NC(=O)COc4ccc(Cl)c(F)c4)(C2)C3)Oc2ccc(Cl)cc2C1=O [Compound 259, (2S)-5-chloro-N-{3-[2-(4-chloro-3-fluorophenoxy)acetamido]bicyclo[1.1.1]pentan-1-yl}-2-methyl-3-oxo-2,3-dihydro-1-benzofuran-2-carboxamide] | 500 to 2000 nM
Cc1cnc(C(=O)NC23CC(NC(=O)[C@H]4C[C@@H](O)c5cc(Cl)ccc5O4)(C2)C3)cn1 [Compound 382, N-(3-{[(2R,4R)-6-chloro-4-hydroxy-3,4-dihydro-2H-1-benzopyran-2-carbonyl]amino}bicyclo[1.1.1]pentan-1-yl)-5-methylpyrazine-2-carboxamide] | 50 to 250 nM
O=C(COc1ccc(Cl)c(F)c1)NC12CC(NC(=O)c3cc(=O)c4cc(Cl)c(F)cc4o3)(C1)C2 [Compound 231, 6-chloro-N-{3-[2-(4-chloro-3-fluorophenoxy)acetamido]bicyclo[1.1.1]pentan-1-yl}-7-fluoro-4-oxo-4H-1-benzopyran-2-carboxamide] | < 10 nM
C[C@@]1(O)C[C@@H](C(=O)NC23CC(NC(=O)COc4ccc(Cl)c(F)c4)(C2)C3)Oc2ccc(Cl)cc21 (single isomer, unassigned) [Compound 288] | < 10 nM
O=C(COc1ccc(Cl)c(F)c1)NC12CC(NC(=O)c3cc(=O)c4cc(F)cc(F)c4o3)(C1)C2 [Compound 292, N-{3-[2-(4-chloro-3-fluorophenoxy)acetamido]bicyclo[1.1.1]pentan-1-yl}-6,8-difluoro-4-oxo-4H-1-benzopyran-2-carboxamide] | 50 to 250 nM
O=C(COc1ccc(Cl)c(F)c1)NC12CC(NC(=O)[C@@H]3CC(=O)c4ccccc4O3)(C1)C2 [Compound 269, (2S)—N-{3-[2-(4-chloro-3-fluorophenoxy)acetamido]bicyclo[1.1.1]pentan-1-yl}-4-oxo-3,4-dihydro-2H-1-benzopyran-2-carboxamide] | 50 to 250 nM
O=C(COc1ccc(Cl)c(F)c1)NC12CC(NC(=O)[C@H]3CC(=O)c4cc(Cl)ccc4O3)(C1)C2 [Compound 223, (2R)-6-chloro-N-{3-[2-(4-chloro-3-fluorophenoxy)acetamido]bicyclo[1.1.1]pentan-1-yl}-4-oxo-3,4-dihydro-2H-1-benzopyran-2-carboxamide] | < 10 nM
O=C(COc1ccc(F)c(F)c1)NC12CC(NC(=O)[C@H]3CC(=O)c4cc(Cl)ccc4O3)(C1)C2 [Compound 275, (2R)-6-chloro-N-{3-[2-(3,4-difluorophenoxy)acetamido]bicyclo[1.1.1]pentan-1-yl}-4-oxo-3,4-dihydro-2H-1-benzopyran-2-carboxamide] | < 10 nM
